Reference: PubChem BioAssay (NCI)
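Values below derive from 48-hour exposures of cells grown in 96-well plates, with endpoints linearly interpolated between the two concentrations bracketing the appropriate inhibition level. At the TGI there is no net growth.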

Columns and labels:
Test in all cases: NCI-60 cell line screen, 48 h
A498 renal = system: A498 renal
A549 NSCLC = system: A549 NSCLC
ACHN renal = system: ACHN renal
CAKI-1 renal = system: CAKI-1 renal
CCRF-CEM leukemia = system: CCRF-CEM leukemia
COLO 205 colon = system: COLO 205 colon
DLD-1 colon = system: DLD-1 colon
DMS 114 small cell lung = system: DMS 114 small cell lung
EKVX NSCLC = system: EKVX NSCLC
HCC-2998 colon = system: HCC-2998 colon
HCT-116 colon = system: HCT-116 colon
HCT-15 colon = system: HCT-15 colon
HL-60(TB) leukemia = system: HL-60(TB) leukemia
HOP-62 NSCLC = system: HOP-62 NSCLC
HT29 colon = system: HT29 colon
K-562 leukemia = system: K-562 leukemia
KM12 colon = system: KM12 colon
KM20L2 colon = system: KM20L2 colon
LOX IMVI melanoma = system: LOX IMVI melanoma
LXFL 529 NSCLC = system: LXFL 529 NSCLC
M14 melanoma = system: M14 melanoma
M19-MEL melanoma = system: M19-MEL melanoma
MALME-3M melanoma = system: MALME-3M melanoma
MOLT-4 leukemia = system: MOLT-4 leukemia
NCI-H226 lung = system: NCI-H226 lung
NCI-H522 lung = system: NCI-H522 lung
OVCAR-3 ovarian = system: OVCAR-3 ovarian
OVCAR-5 ovarian = system: OVCAR-5 ovarian
OVCAR-8 ovarian = system: OVCAR-8 ovarian
RPMI-8226 leukemia = system: RPMI-8226 leukemia
RXF-631 renal = system: RXF-631 renal
SF-268 CNS = system: SF-268 CNS
SF-295 CNS = system: SF-295 CNS
SF-539 CNS = system: SF-539 CNS
SK-MEL-2 melanoma = system: SK-MEL-2 melanoma
SK-MEL-28 melanoma = system: SK-MEL-28 melanoma
SK-OV-3 ovarian = system: SK-OV-3 ovarian
SN12C renal = system: SN12C renal
SNB-19 CNS = system: SNB-19 CNS
SNB-75 CNS = system: SNB-75 CNS
SNB-78 CNS = system: SNB-78 CNS
SW-620 colon = system: SW-620 colon
UACC-257 melanoma = system: UACC-257 melanoma
UACC-62 melanoma = system: UACC-62 melanoma
UO-31 renal = system: UO-31 renal
XF 498 CNS = system: XF 498 CNS
786-0 renal = system: 786-0 renal
DMS 273 small cell lung = system: DMS 273 small cell lung
HOP-92 NSCLC = system: HOP-92 NSCLC
IGROV1 ovarian = system: IGROV1 ovarian
NCI-H23 lung = system: NCI-H23 lung
SR leukemia = system: SR leukemia
TK-10 renal = system: TK-10 renal
U251 CNS = system: U251 CNS
HOP-18 NSCLC = system: HOP-18 NSCLC
NCI-H460 lung = system: NCI-H460 lung
OVCAR-4 ovarian = system: OVCAR-4 ovarian
RXF 393 renal = system: RXF 393 renal
SK-MEL-5 melanoma = system: SK-MEL-5 melanoma

Measured: TGI

CCNC(=O)N(CC)CN(CC)C(=O)NCC
not listed: 786-0 renal | DMS 273 small cell lung | HOP-92 NSCLC | IGROV1 ovarian | NCI-H23 lung | SR leukemia | TK-10 renal | U251 CNS | HOP-18 NSCLC | NCI-H460 lung | OVCAR-4 ovarian | RXF 393 renal | SK-MEL-5 melanoma
> 100 µM: all other assays above

COc1cccc2c1N[S@](=O)S2
not listed: A498 renal | COLO 205 colon | DMS 114 small cell lung | HCC-2998 colon | HOP-62 NSCLC | OVCAR-5 ovarian | OVCAR-8 ovarian | HOP-18 NSCLC | NCI-H460 lung | OVCAR-4 ovarian | RXF 393 renal | SK-MEL-5 melanoma
> 100 µM: all other assays above

CC(N)Cc1ccc(F)cc1 (stereo not given)
not listed: M19-MEL melanoma | XF 498 CNS
> 100 µM: all other assays above
